# Reference: PubChem BioAssay (NCI)
#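 Dose response: 5 concentrations. Exposure: 48 h. Format: 96-well plates. Endpoint: linear interpolation; highest concentration if not reached. Definition used: TGI = concentration required for complete inhibition of growth.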
# Test system: RXF-631 renal
# Assay: NCI-60 cell line screen, 48 h
structure (smiles),measurement,value
COC(=O)CC(=O)OSc1ccccc1,TGI,25 µM
